The results in this text go back to patent publication EP4803523A1, “FUSED HETEROARYL COMPOUND, PREPARATION METHOD THEREFOR, AND USE THEREOF IN MEDICINE” (Jiangsu Hengrui Pharmaceuticals Co., Ltd., priority 2023, dated 2025).

One series in a line: in vivo. As to conditions: rat, in vivo, po, 20 mg/kg.
In another series the test system is AGS. Briefly: 3D cell proliferation inhibition assay (CellTiter-Glo 3D). The class given is cell-based. The following applies: Homo sapiens, 120 h; AGS cells, KRAS G12D, 3D culture, 5 days with compound. The method, then: (§1) This experiment uses the cells listed in the table below to evaluate the inhibitory effects of the compounds on the proliferation of KRAS mutant or KRAS amplified cells.
(§2) On the first day of the experiment, cells that were growing well and had reached 70%-80% confluence were digested, resuspended in culture medium, and the cell density was adjusted to the desired level. In a U-shaped low-attachment 96-well plate (Corning, 7007), 90 µL of cell suspension was added per well, with the cell density as shown in the table above. The cell plate was centrifuged at 2500 rpm for 5 minutes and then placed in an incubator for 24 hours of culture. On the second day, the 20 mM test compound dissolved in DMSO was diluted with DMSO to the first concentration of 2 or 0.2 mM, and then serially diluted in a 5-fold gradient to obtain 9 concentration points, with the control well containing DMSO. The serially diluted compound was then further diluted 20-fold with culture medium. 10 µL of the test compound diluted in culture medium was added to each well of the cell plate. The final concentrations of the compound were 9 points in a 5-fold serial dilution starting from 10 or 1 µM. Cell wells containing 0.5% DMSO were set as vehicle control wells, and wells containing only culture medium and 0.5% DMSO were set as blank control wells. The cell plate was centrifuged at 2000 rpm for 3 minutes and then placed in an incubator for 5 days of culture. On the seventh day, the 96-well cell culture plate was taken out, and 50 µL of the luminescent cell viability detection reagent, CellTiter-Glo® 3D Cell Viability Assay (Promega, G9683), was added to each well. After shaking at room temperature for 25 minutes, the mixture was pipetted up and down to mix, and 100 µL was transferred from each well to a white, opaque-bottom OptiPlate™-96 well plate (PerkinElmer, 6005290). The luminescence signal value was read using a multimode microplate reader (PerkinElmer, EnVision2105).
(§3) The inhibition rate was calculated using the following formula: Inhibition rate = (Luminescence value vehicle control well - Luminescence value test compound)/(Luminescence value vehicle control well - Luminescence value blank control well) × 100%. The IC50 values of the compound inhibitory activity were calculated using Graphpad Prism software. Table 1. Data of inhibitory activity on 3D cell proliferation (unit: nM)

The test system of the next series is GP2d. Described as above. The class given is cell-based. The following applies: GP2d cells, KRAS G12D, 3D culture, 5 days with compound. The method, then: as §1, §2, §3
The next series deals with AsPC-1. The description is as above. The class given is cell-based. The following applies: Homo sapiens, ASPC1, 120 h; AsPC-1 cells, KRAS G12D, 3D culture, 5 days with compound. The method, then: as §1, §2, §3
In the next series the test system is MKN1. The series is described as above. Format: cell-based. As to conditions: Homo sapiens, MKN-1, 120 h; MKN1 cells, KRAS Amp, 3D culture, 5 days with compound. The method, then: as §1, §2, §3

Molecules are shown by their SMILES.

Method for in vivo: Using SD rats as the test animals, the plasma concentrations of the example compounds at different time points were determined by LC-MS/MS following oral gavage (i.g.) administration. The pharmacokinetic behaviours of the compounds of the present disclosure in rats were investigated, and their pharmacokinetic profiles were evaluated.
Blood samples (0.2 mL) were collected from the orbit before administration and at 0.25, 0.5, 1.0, 2.0, 4.0, 6.0, 8.0, 11.0, and 24.0 hours after administration. The samples were placed in EDTA-K2 anticoagulant tubes, centrifuged at 10,000 rpm for 2 minute (4°C), and the plasma was separated within 1 hour and stored at -20°C or -80°C until analysis. The entire process from blood collection to centrifugation was performed in ice bath conditions.
The mixture was vortexed and then centrifuged at 4000 rpm for 15 minutes; the supernatant was taken for LC-MS/MS analysis. […] The mixture was vortexed and then centrifuged at 3700 rpm for 10 minutes; the supernatant was taken for LC-MS/MS analysis.
The mixture was vortexed and then centrifuged at 4000 rpm for 15 minutes; the supernatant was taken for LC-MS/MS analysis. […] The mixture was vortexed and then centrifuged at 4000 rpm for 15 minutes; the supernatant was taken for LC-MS/MS analysis.

As for `N#Cc1c(N)sc2c(F)ccc(-c3c4c(c5cnc(OC[C@@]67CCCN6C[C@H](F)C7)nc5c3Cl)COC4)c12` (single isomer, unassigned) [60A (reference), reference compound], in “in vivo”, the area under the curve AUC(0-t) (commonly exposure summed from dosing to a finite time, without extrapolation to infinity) is 1820 ng·h/mL; the CL/F (as a rule, clearance divided by bioavailability, as obtained after extravascular dosing) was 178 mL/min/kg; the highest level (Cmax) was 143 ng/mL; the Vd/F (in general, the volume of distribution divided by bioavailability) came out at 54.5 L/kg. In the series “in vivo”, the half-life (commonly the time needed for the level to fall by half in the phase considered) is 3.53 h.

Regarding `N#Cc1c(N)sc2c(F)ccc(-c3c4c(c5c(N6C7CCC6CNC7)nc(OCC6(CN7CCC(=CF)CC7)CC6)nc5c3F)COC4)c12` (single isomer, unassigned) [Example 9A], the IC50 – broadly, the point on the concentration scale where inhibition reaches its midpoint – with AGS came out at 4.22 nM; in the series with GP2d, 0.16 nM.

For the molecule `N#Cc1c(N)sc2c(F)ccc(-c3c4c(c5c(N6C7CCC6CNC7)nc(OCC6(CN7CCC(=CF)CC7)CC6)nc5c3F)COC4)c12` (single isomer, unassigned) [Example 9B], in the series on GP2d, the IC50 amounted to 2.6 nM.

`C[C@@H](O)CN1CC2CCC(C1)N2c1nc(OCC2(C#N)CC2)nc2c(F)c(-c3ncc(F)c4sc(N)c(C#N)c34)c3c(c12)COC3` [58 (reference), reference compound]: the half-inhibitory concentration (IC50) in the series on AGS was 2000 nM; in the series on AsPC-1, 3330 nM; in the series with GP2d (GP2d, 120 h) it was greater than 1000 nM.

Turning to `C[C@@H](O)CN1CC2CCC(C1)N2c1nc(OCC2(CN3CCC(=CF)CC3)CC2)nc2c(F)c(-c3ncc(F)c4sc(N)c(C#N)c34)c3c(c12)COC3` [Example 1, 2-amino-7-fluoro-4-(5-fluoro-3-((1-((4-(fluoromethylene)piperidin-1-yl)methyl)cyclopropyl)methoxy)-1-(3-((R)-2-hydroxypropyl)-3,8-diazabicyclo[3.2.1]oct-8-yl)-7,9-dihydrofuro[3,4-f]quinazolin-6-yl)thieno[3,2-c]pyridine-3-carbonitrile], the half-inhibitory concentration (IC50) in the series with AGS turned out to be 1.03 nM; with AsPC-1, 4.17 nM; with GP2d (GP2d, 120 h), 0.28 nM.

In the case of `N#Cc1c(N)sc2c(F)cnc(-c3c4c(c5c(N6C7CCC6CNC7)nc(OCC6(CN7CCC(=CF)CC7)CC6)nc5c3F)COC4)c12` [Example 1i, 4-(1-(3,8-diazabicyclo[3.2.1]oct-8-yl)-5-fluoro-3-((1-((4-(fluoromethylene)piperidin-1-yl)methyl)cyclopropyl)methoxy)-7,9-dihydrofuro[3,4-f]quinazolin-6-yl)-2-amino-7-fluorothieno[3,2-c]pyridine-3-carbonitrile], the IC50 in the series with AGS came out at 1.03 nM; in the series on AsPC-1, 5.07 nM; with GP2d (GP2d, 120 h) it was 0.34 nM.

Regarding `N#Cc1c(N)sc2c(F)ccc(-c3c4c(c5c(N6C7CCC6CNC7)nc(OCC6(CN7CCC(=CF)CC7)CC6)nc5c3F)COC4)c12` [Example 9, 4-(1-(3,8-diazabicyclo[3.2.1]oct-8-yl)-5-fluoro-3-((1-((4-(fluoromethylene)piperidin-1-yl)methyl)cyclopropyl)methoxy)-7,9-dihydrofuro[3,4-f]quinazolin-6-yl)-2-amino-7-fluorobenzo[b]thiophene-3-carbonitrile], the IC50 turned out to be 1.09 nM in the series on AGS; 9.95 nM in the series with AsPC-1; 0.26 nM with GP2d (GP2d, 120 h).

In the case of `N#Cc1c(N)sc2c(F)ccc(-c3c4c(c5c(N6C7CCC6CNC7)nc(OCC6(CN7CCC(=C(F)F)CC7)CC6)nc5c3F)COC4)c12` [Example 11, 4-(1-(3,8-diazabicyclo[3.2.1]oct-8-yl)-3-((1-((4-(difluoromethylene)piperidin-1-yl)methyl)cyclopropyl)methoxy)-5-fluoro-7,9-dihydrofuro[3,4-f]quinazolin-6-yl)-2-amino-7-fluorobenzo[b]thiophene-3-carbonitrile], the IC50 was found to be 8.64 nM in the series with AGS and 0.86 nM in the series with GP2d (GP2d, 120 h).

`N#Cc1c(N)sc2c(F)ccc(-c3c4c(c5c(N6C7CCC6CNC7)nc(OCC67CCCN6CC(=CF)C7)nc5c3F)COC4)c12` (stereo not drawn) [Example 13, 4-(1-(3,8-Diazabicyclo[3.2.1]oct-8-yl)-5-fluoro-3-((2-(fluoromethylene)tetrahydro-1H-pyrrolizin-7a(5H)-yl)methoxy)-7,9-dihydrofuro[3,4-f]quinazolin-6-yl)-2-amino-7-fluorobenzo[b]thiophene-3-carbonitrile]: the IC50 stood at 2.19 nM in the series with AGS and 0.39 nM in the series with GP2d (GP2d, 120 h).

With `N#Cc1c(N)sc2c(F)ccc(-c3c4c(c5cnc(OCC6(CN7CCC(=CF)CC7)CC6)nc5c3F)COC4)c12` [Example 14, 2-Amino-7-fluoro-4-(5-fluoro-3-((1-((4-(fluoromethylene)piperidin-1-yl)methyl)cyclopropyl)methoxy)-7,9-dihydrofuro[3,4-f]quinazolin-6-yl)benzo[b]thiophene-3-carbonitrile], the 50% inhibitory concentration (IC50) in the series with AGS came to 15.1 nM; with MKN1, 8.1 nM; in the series on GP2d (GP2d, 120 h), 5.85 nM.

Regarding `N#Cc1c(N)sc2c(F)ccc(-c3c4c(c5c(N6C7CCC6CNC7)nc(OCC67CCCN6CC(=C(F)F)C7)nc5c3F)COC4)c12` (stereo not drawn) [Example 17, 4-(1-(3,8-Diazabicyclo[3.2.1]oct-8-yl)-3-((2-(difluoromethylene)tetrahydro-1H-pyrrolizin-7a(5H)-yl)methoxy)-5-fluoro-7,9-dihydrofuro[3,4-f]quinazolin-6-yl)-2-amino-7-fluorobenzo[b]thiophene-3-carbonitrile], the IC50 in the series on AGS is 2.86 nM; in the series on GP2d (GP2d, 120 h), 0.57 nM.

On to `C=C1CN2CC(=C)CC2(COc2nc(N3C4CCC3CNC4)c3c4c(c(-c5ccc(F)c6sc(N)c(C#N)c56)c(F)c3n2)COC4)C1` [Example 18, 4-(1-(3,8-Diazabicyclo[3.2.1]oct-8-yl)-3-((2,6-dimethylenetetrahydro-1H-pyrrolizin-7a(5H)-yl)methoxy)-5-fluoro-7,9-dihydrofuro[3,4-f]quinazolin-6-yl)-2-amino-7-fluorobenzo[b]thiophene-3-carbonitrile], for which the 50% inhibitory concentration (IC50) in the series with AGS is 4.89 nM; with GP2d (GP2d, 120 h), 0.53 nM.

As to `N#Cc1c(N)sc2c(F)cnc(-c3c4c(c5c(N6C7CCC6CNC7)nc(OCC6(CN7CCC(=C(F)F)CC7)CC6)nc5c3F)COC4)c12` [Example 20, 4-(1-(3,8-diazabicyclo[3.2.1]oct-8-yl)-3-((1-((4-(difluoromethylene)piperidin-1-yl)methyl)cyclopropyl)methoxy)-5-fluoro-7,9-dihydrofuro[3,4-f]quinazolin-6-yl)-2-amino-7-fluorothieno[3,2-c]pyridine-3-carbonitrile], the IC50 in the series on AGS stood at 2.09 nM; with AsPC-1, 7.56 nM; in the series on GP2d (GP2d, 120 h) it was 0.27 nM.

In the case of `N#Cc1c(N)sc2c(F)cnc(-c3c4c(c5c(N6C7CCC6CN(O)C7)nc(OCC6(CN7CCC(=C(F)F)CC7)CC6)nc5c3F)COC4)c12` [Example 21, 2-Amino-4-(3-((1-((4-(difluoromethylene)piperidin-1-yl)methyl)cyclopropyl)methoxy)-5-fluoro-1-(3-hydroxyl-3,8-diazabicyclo[3.2.1]oct-8-yl)-7,9-dihydrofuro[3,4-f]quinazolin-6-yl)-7-fluorothieno[3,2-c]pyridine-3-carbonitrile], the 50% inhibitory concentration (IC50) in the series with GP2d (GP2d, 120 h) is 2.12 nM.

Turning to `N#Cc1c(N)sc2c(F)cnc(-c3c4c(c5c(N6C7CCC6CN(O)C7)nc(OCC6(CN7CCC(=CF)CC7)CC6)nc5c3F)COC4)c12` [Example 22, 2-Amino-7-fluoro-4-(5-fluoro-3-((1-((4-(fluoromethylene)piperidin-1-yl)methyl)cyclopropyl)methoxy)-1-(3-hydroxyl-3,8-diazabicyclo[3.2.1]oct-8-yl)-7,9-dihydrofuro[3,4-f]quinazolin-6-yl)thieno[3,2-c]pyridine-3-carbonitrile], the IC50 amounted to 1.57 nM in the series with AGS; 4.64 nM in the series on AsPC-1; 0.26 nM in the series with GP2d (GP2d, 120 h).

`C=C1CN2CC(=C)CC2(COc2ncc3c4c(c(-c5ccc(F)c6sc(N)c(C#N)c56)c(F)c3n2)COC4)C1` [Example 26, 2-Amino-4-(3-((2,6-dimethylenetetrahydro-1H-pyrrolizin-7a(5H)-yl)methoxy)-5-fluoro-7,9-dihydrofuro[3,4-f]quinazolin-6-yl)-7-fluorobenzo[b]thiophene-3-carbonitrile]: the IC50 worked out at 13.2 nM in the series on MKN1 and 9.79 nM in the series with GP2d (GP2d, 120 h).

On to `N#Cc1c(N)sc2ccc(F)c(-c3c4c(c5cnc(OCC6(CN7CCC(=CF)CC7)CC6)nc5c3F)COC4)c12` [Example 40, 2-Amino-5-fluoro-4-(5-fluoro-3-((1-((4-(fluoromethylene)piperidin-1-yl)methyl)cyclopropyl)methoxy)-7,9-dihydrofuro[3,4-f]quinazolin-6-yl)benzo[b]thiophene-3-carbonitrile], for which the IC50 in the series with MKN1 came out at 11.1 nM; in the series on GP2d (GP2d, 120 h), 8.4 nM.
